Data reported in a melting point compilation (Tetko et al.; mined from patent text by program, amines drawn as free bases though some values may be those of a salt).

| SMILES | melting point [°C] |
| --- | --- |
| CCOC(=O)C1=C(NC(=O)Nc2cc(C(=O)OC(C)C)c(Br)cc2Br)CCC1 | 157 to 158 |
| O=C1c2ccccc2SC12CC2 | 70 |
| O=c1[nH]c(=O)n(Cc2ccccc2)cc1C(F)(F)F | 194 to 195 |
| COCCOc1ccc(/C=C/C(=O)O)c(Oc2ncc(Cl)cc2Cl)c1 | 182 to 184 |
| C[C@H]1[C@@H](C(C)(C)O)CCN1c1ccc(C#N)c(Cl)c1F | 125 to 126 |
| CN1CCC(N2C(=O)c3ccccc3Oc3ccccc32)CC1 | 173 to 174 |
| Cc1cc(Cl)c(C(=O)OC(C)c2nc3c(c(=O)n(C)c(=O)n3C)n2C)c(C)n1 (centres undefined) | 168 to 170 |
| CCCC1C(=O)C(NC(=O)C2CCc3ccccc3C2)=C(N)C(CCC)C1=O (centres undefined) | 202 to 204 |
| CC(=O)N1CCC(O)(Cn2nc(-c3c(-c4ccccc4)nn4ccccc34)ccc2=O)CC1 | 163 to 165 |
| NC1=NN(c2cccc(C(F)(F)F)c2)CC1 | 104 to 107 |
| COc1cc2c(Nc3ccc(Sc4nccn4C)c(Cl)c3)c(C#N)cnc2cc1N1CCN(CCn2ccnc2)CC1 | 251 to 253 |
| CCCCNC(=O)NCCOc1ccc2c(ccn2Cc2ccc(Cl)cc2)c1 | 163 to 164 |
| CCN(CC)C1=NS(=O)(=O)c2cccc(OC(F)F)c21 | 93 to 94 |
| CCOC(=O)c1cnn(-c2ccccc2)c1OC | 67 |
| Cc1ccc(NC(=O)N(C)Cc2cccc3c2C(=O)N(C2CCC(=O)NC2=O)C3=O)cc1Cl (centres undefined) | 193 to 195 |
| CC1=C(C(=O)OC(CN2CCCCC2)c2ccccc2)C(c2cccc([N+](=O)[O-])c2)n2ccnc2N1 (centres undefined) | 205 to 206 |
| Cc1nc(C)c2c(n1)N(Cc1ccc(-c3ccccc3-c3nnnn3C(c3ccccc3)(c3ccccc3)c3ccccc3)cc1)C(=O)CC2 | 160 to 161 |
| CC(S)C(=O)N1c2ccccc2CCC1C(=O)O (centres undefined) | 141 to 143 |
| O=c1[nH]c2cccc(Br)c2c(=O)o1 | 280 to 281 |
| CCOc1cc(CCl)nc(C)n1 | 29 |
| CCn1c2c(c3ccccc31)S(=O)(=O)N(C)C(C(=O)Nc1ccccn1)=C2O | 232 |
| CCc1c(C)oc(-c2ccc(S(C)(=O)=O)cc2)c(Oc2ccc(F)cc2F)c1=O | 173 |
| O=C(NCCO)c1ccc(NS(=O)(=O)c2ccc(F)cc2)cn1 | 144 to 146 |
| COc1cc(N)ccc1C=NNC(=N)NN=Cc1ccc(N)cc1OC | 220 to 230 |
| COc1ccc2c(c1)CN(C(=O)N(C)C)N=C2Cc1c(Cl)cncc1Cl | 160 to 162 |

| SMILES | melting point [°C] |
| --- | --- |
| O=C(NC(=O)N(SC(Cl)(Cl)Cl)c1ccc(C(F)(F)F)cc1)c1c(F)cccc1F | 129 to 130 |
| C[Si](C)(C)c1c(C#N)c(C(F)(F)F)nn1-c1c(Cl)cc(C(F)(F)F)cc1Cl | 108 to 110 |
| N#Cc1c(N2CCCC2)cc(-c2ccc(Cl)cc2)c2c1Cc1ccccc1-2 | 197 to 199 |
| Oc1ccc(-c2c3ccc(O)cc3cc3sc4ccccc4c23)cc1 | 233 to 235 |
| O=C(Nc1cccnn1)N1CCN(c2nccc(-c3cccc(F)c3)n2)CC1 | 238 to 239 |
| O=C(O)CCS(=O)(=O)O | 74.6 |
| O=C(c1ccc2c(c1)C(=O)N1CCC[C@H]1CO2)N1CCOCC1 | 158 to 161 |
| COc1cc2c(cc1C)C1(CO2)C(=O)N(CC2CCCCO2)c2ccccc21 (centres undefined) | 180 to 182 |
| COc1cc(CCc2ccc(O)c(O)c2)cc(OC)c1OC | 113 to 115 |
| CCc1c(CC#N)ccc(O)c1O | 101 to 103 |
| COCCOc1ccccc1-c1cc2[nH]c3ccc(OCc4ccccc4)cc3c2c2c1C(=O)NC2=O | 157 to 159 |
| CCOc1cc2cc(C(=O)O)sc2cc1OCC | 243 to 245 |
| CC1(C)CCC(C)(C)c2cc(C(=O)Nc3ccc(OCCN4CCOCC4)cc3)ccc21 | 134 to 136 |
| N#CC(C#N)=C1Sc2nc3ccc(C(F)(F)F)cc3nc2S1 | 197 to 199 |
| CC(C)c1ncc(O)c(O)n1 | 187 |
| COc1cccc(CN2CCc3cc(O)c(OC)cc3C2)c1 | 161 to 162 |
| CC(=O)C=Cc1ccccc1O | 136 to 137 |
| O=C1c2c(ccc(O)c2O)CC1C(=O)c1c(F)c(F)c(F)c(F)c1F (centres undefined) | 114 to 115 |
| Nc1nc(-c2ccccc2)c(F)c(=O)[nH]1 | 276 to 278 |
| O=C(O)c1cc(I)cc2c(=O)c3ccccc3[nH]c12 | > 400 |
| CC1SC(=O)NN=C1c1ccc2c(c1)C(=NNc1ccc(Cl)cc1)C(=O)N2 (centres undefined) | 283 |
| COc1cc(Nc2c(C#N)cnc3cc(/C=C/n4nccn4)sc23)c(Cl)cc1Cl | 315 to 316 |
| COc1nc2ccccc2cc1NC(=O)N1CCN(c2cccc(O)c2)CC1 | 190 to 191 |
| CC(C)(C)c1ccc(-n2cnnc2C(F)(F)F)cc1 | 134 |
| CCOC(=O)Cn1c(-c2cc3c(cc2N)OCO3)nc2ccccc21 | 284 to 287 |

| SMILES | melting point [°C] |
| --- | --- |
| NCC(O)CN1CCN(C(c2ccc(F)cc2)c2ccc(F)cc2)CC1 (centres undefined) | 45 to 47 |
| CCOC(=O)c1c(Cn2cnnc2)nc2sc(C)c(C)c2c1-c1ccc2c(c1)OCO2 | 96 to 98 |
| O=C(c1ccccc1)N1CCc2[nH]c3cccc(CCCO)c3c2CC1 | 144 to 147 |
| CCOc1ccc(C#N)c(F)c1F | 45 |
| Cc1ccccc1C(=O)OCC1OC(N2CN(C)C(=O)NC2=O)CC1OC(=O)c1ccccc1C (centres undefined) | 184 to 185 |
| CCn1c(=O)c2[nH]c(/C=C/c3ccc(F)c(Br)c3)nc2n(CC)c1=O | > 300 |
| COc1ccc(C(=O)Nc2ccc3ccc(Cl)nc3n2)cn1 | 270 |
| COC(=O)c1ccc(C(=O)NC(C(=O)N2CCCC2C(=O)NC(C(C)C)C(O)C(F)(F)F)C(C)C)cc1 (mixture of isomers) | 64 to 67 |
| c1cc2cc3ccc(OCCN4CCCCC4)cc3nc2cc1OCCN1CCCCC1 | 129 to 130 |
| O=c1cc(-c2ccc(OCc3ccccc3)c(OCc3ccccc3)c2)oc2cc(OCCBr)ccc12 | 167 to 168 |
| CCCCCC(O)CNC (centres undefined) | 40 to 43 |
| COc1ccc(C2=NN(C3CCN(c4ccc([N+](=O)[O-])cc4)CC3)C(=O)[C@@H]3CC=CC[C@H]23)cc1OC | 196 to 197 |
| COc1cccc(OC)c1-c1cc(C(=O)NC2(C(=O)O)C3CC4CC(C3)CC2C4)nn1-c1cccc2ncccc12 (centres undefined) | > 260 |
| Cc1cc(C)c(NCCC(N)=S)cc1C | 110 to 111 |
| CC(C)Cn1cnc2c(N)nc3cc(Br)ccc3c21 | 218 to 220 |
| CCN(CC)CCOc1cccc2c1c1cc(Cl)ccc1n2Cc1ccc(F)cc1 | 99 to 99.5 |
| Cc1ccc(NCCOS(C)(=O)=O)c([N+](=O)[O-])c1 | 65 to 67 |
| COC(=O)N1CCC(C2(NO)OCCO2)C(=O)C1 (centres undefined) | 150 to 152 |
| COc1ccc(CCNCC(O)COc2cccc3nn(Cc4ccccc4)cc23)cc1OC (centres undefined) | 101 to 102 |
| Cc1ccc(S(=O)(=O)Nc2ccc(Cl)cc2[N+](=O)[O-])cc1 | 110 to 111 |
| CCCCCCCCC1C=CC(C(=O)c2ccc(C(=O)O)o2)=C2N=C3CCCCC3=C21 (centres undefined) | 140 to 142 |
| CCOC(=O)c1ccc(CC(=O)NC(CC(C)C)c2ccccc2N2CCCCC2)cc1OCC (centres undefined) | 111 to 112 |
| CSCC[C@H](NC(=O)[C@@H]1CS[C@H](c2ccccc2O)N1C(=O)CCSC(C)=O)C(=O)O | 59 to 64 |
| Cc1nc(C)c(C(C)(O)c2ccccc2)o1 (centres undefined) | 94.5 to 96 |
| COC(=O)c1ccccc1S(=O)(=O)NC(=O)Nc1nc(OC)cc(OC(F)(F)F)n1 | 141 to 143 |

| SMILES | melting point [°C] |
| --- | --- |
| Cc1ccnc(C(=O)n2cc(CC(=O)N(C)C)c3ccc(Cl)cc32)c1 | 208 |
| CCN(CC)C(=CC1=NCCCC1)c1ccccc1 | 169 to 170 |
| COc1ccc(OC(C)=O)cc1[N+](=O)[O-] | 93 to 97 |
| CN(C)CCCn1c(=O)c(C#N)c(N2CCN(C(=O)c3cccs3)CC2)c2cccnc21 | 176 |
| O=C(O)c1ccc(CNC(=O)C2Cc3ccccc3N2S(=O)(=O)c2ccc(-c3ccc(F)cc3F)cc2)cc1 (centres undefined) | 115 |
| COC(=O)c1cnn(-c2cccc(Cl)c2)c1C(N)=O | 191 to 192 |
| CS(=O)(=O)Nc1cccc2c(O)ccc(N=Nc3cccc(S(=O)(=O)NCCCCCCBr)c3)c12 | 163 to 165 |
| OC1CCN(c2ccc(Br)cn2)CC1 | 91 to 93 |
| CC(O)C(NCc1ccc([N+](=O)[O-])cc1)C(=O)O (centres undefined) | 142 to 143 |
| O=c1ccc(C(F)(F)F)cn1Cc1ccccc1NCCCl | 93.5 to 95 |
| COc1ccc(-c2[nH]c(=O)c3cc(OC)ccc3c2N2CCOCC2)cc1 | 139 |
| N#Cc1ccc(Cn2cncc2CN2CCC3(CC2)C(=O)Nc2ccccc23)cc1 | 245 to 247 |
| CSc1nnc(C(O)(c2ccc(Cl)cc2)c2ccc3nc(C)cc(-c4cccc(Cl)c4)c3c2)n1C (centres undefined) | 142 |
| CC(=O)Nc1cccc(-c2c(C)c(NC(=O)CC(C)(C)C)c(C)c3c2OCC3c2ccc(C(C)C)cc2)n1 (centres undefined) | 205 to 208 |
| Cc1cccnc1CCOc1ccc(NC(=O)N(C)C)cc1 | 123 to 125 |
| COc1cc(OC)c(/C=C/S(=O)(=O)CS(=O)(=O)/C=C/c2c(OC)cc(OC)cc2OC)c(OC)c1 | 140 to 142 |
| Cc1ccc2c(c1)C(O)=C(C(=O)Nc1cncc(Cl)n1)N(C)S2(=O)=O | 296 to 298 |
| CCCCSc1nc(N)c(C#N)s1 | 115 to 117 |
| c1ccc(N=C2SCS2)nc1 | 98.7 to 99.7 |
| Cc1c(NC(=O)CC(C)(C)C)c(C)c2c(c1C(=O)c1ccccc1)OC[C@@H]2c1ccc(C(C)C)cc1 | 205 to 206 |
| O=c1c(Cl)c(Cl)cnn1-c1cc(C(F)(F)F)cc(C(F)(F)F)c1 | 255 to 262 |
| COc1ccc(S(=O)(=O)N(CCCO)c2ccccc2/C=C/c2ccncc2)cc1 | 164 to 167 |
| CC(C)(C)Oc1ccc(C(=O)N[C@H]2CC[C@H](CCN3CCN(c4nccc5c4CCO5)CC3)CC2)cc1 | 200 |
| COc1cccc(C(=O)CC(=O)c2cc(NC(C)=O)ccc2O)c1 | 72 to 73 |
